We go through 14 compounds from US10538555B2, “Macrocyclic inhibitors of the PD-1/PD-L1 and CD80(B7-1)/PD-L1 protein/protein interactions” (BRISTOL-MYERS SQUIBB COMPANY, priority 2014, dated 2020).

Read-outs that look alike come from different tables or passages of the source. Where a SMILES comes first, the peptide text is derived from it. Bridges are numbered along the chain shown (N, C = ends). [ ]: non-standard residue; d: D form. Trp(βS-Me) = C[C@@H](c1c[nH]c2ccccc12)[C@H](N)C(=O)O; Phe(3,4,5-F3) = N[C@@H](Cc1cc(F)c(F)c(F)c1)C(=O)O; NMePhe(4-F) = CN[C@@H](Cc1ccc(F)cc1)C(=O)O; Hyp = O=C(O)[C@@H]1C[C@@H](O)CN1; NMeF = CN[C@@H](Cc1ccccc1)C(=O)O; dHyp = O=C(O)[C@H]1C[C@H](O)CN1; NMeNle = CCCC[C@H](NC)C(=O)O; dPip = O=C(O)[C@H]1CCCCN1; NMeA = CN[C@@H](C)C(=O)O; Dab = NCC[C@H](N)C(=O)O; Dap = NC[C@H](N)C(=O)O; Sar = CNCC(=O)O

The target of this test is T1, Human PD-L1/PD-1 (Homo sapiens, UniProt Q9NZQ7).
T1 construct: TVMV protease cleavage site (C); made in house; host or cells: HEK293T cells
T1 sequence (Q9NZQ7 with tags, fused parts or gaps): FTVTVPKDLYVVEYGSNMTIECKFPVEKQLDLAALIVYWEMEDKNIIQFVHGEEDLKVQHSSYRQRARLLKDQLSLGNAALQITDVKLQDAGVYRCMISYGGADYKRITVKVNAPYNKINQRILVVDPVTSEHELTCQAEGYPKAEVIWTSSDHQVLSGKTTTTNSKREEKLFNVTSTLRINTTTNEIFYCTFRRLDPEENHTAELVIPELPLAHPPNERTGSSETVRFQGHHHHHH
The test is described as follows: HTRF Human PD-L1/PD-1 binding assay (PD-1-Ig/PD-L1-His). The following applies: PD-L1-His 10 nM, PD-1-Ig 20 nM. The method in brief:
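Soluble HEK293T-expressed proteins: hPD-L1-His 10 nM, hPD-1-Ig 20 nM final. Cpd + PD-L1 15 min, + PD-1 15 min, + Eu anti-Ig 1 nM/APC anti-His 20 nM 30 min. Buffer dPBS, 0.1% BSA, 0.05% Tween-20. TR-FRET 665/620.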

Setting [1] is: read-out: HTRF Human PD-L1/PD-1 Binding Assay IC50.
Where [2] appears, read: class symbol, read-out: HTRF Human PD-L1/PD-1 Binding Assay IC50 Range.

Turning to `CCCC[C@H]1C(=O)N(C)[C@@H](CCCC)C(=O)N[C@@H](CC(C)C)C(=O)N[C@H](C(=O)NCC(N)=O)CSCC(=O)N[C@@H](Cc2ccc(O)cc2)C(=O)N(C)[C@@H](C)C(=O)N[C@@H](CC(N)=O)C(=O)N2CCC[C@H]2C(=O)N[C@@H](CN)C(=O)N[C@@H](CC(C)C)C(=O)N2C[C@H](O)C[C@H]2C(=O)N[C@@H]([C@@H](C)c2c[nH]c3ccccc23)C(=O)N[C@@H](CO)C(=O)N[C@@H](Cc2c[nH]c3ccccc23)C(=O)N1C` [Example 10530] ({CH2CO}-Y[NMeA]NP[Dap]L[Hyp][Trp(βS-Me)]SW[NMeNle][NMeNle]LCG-NH2; thioether N-14), the IC50 under setting [1] came to 15 nM.

As for `CCCC[C@H]1C(=O)N(C)[C@@H](CCCC)C(=O)N[C@@H](CCCNC(=N)N)C(=O)N[C@H](C(N)=O)CSCC(=O)N[C@@H](Cc2ccc(O)cc2)C(=O)N(C)[C@@H](C)C(=O)N[C@@H](CC(N)=O)C(=O)N2CCC[C@H]2C(=O)N[C@@H](CC(N)=O)C(=O)N[C@@H](CC(C)C)C(=O)N2C[C@H](O)C[C@H]2C(=O)N[C@@H]([C@@H](C)c2c[nH]c3ccccc23)C(=O)N[C@@H](CO)C(=O)N[C@@H](Cc2c[nH]c3ccccc23)C(=O)N1C` [Example 10531] ({CH2CO}-Y[NMeA]NPNL[Hyp][Trp(βS-Me)]SW[NMeNle][NMeNle]RC-NH2; thioether N-14), the IC50 under setting [2] lay within 1 to 9.9 nM.

`CCCC[C@H]1C(=O)N(C)[C@@H](CCCC)C(=O)N[C@@H](CC(C)C)C(=O)N[C@H](C(N)=O)CSCC(=O)N[C@@H](Cc2ccc(O)cc2)C(=O)N(C)[C@@H](C)C(=O)N[C@@H](CC(N)=O)C(=O)N2CCC[C@H]2C(=O)N[C@@H](CN)C(=O)N[C@@H](CC(C)C)C(=O)N2C[C@H](O)C[C@H]2C(=O)N[C@@H]([C@@H](C)c2c[nH]c3ccccc23)C(=O)N[C@@H](CO)C(=O)N[C@@H](Cc2c[nH]c3ccccc23)C(=O)N1C` [Example 10532] ({CH2CO}-Y[NMeA]NP[Dap]L[Hyp][Trp(βS-Me)]SW[NMeNle][NMeNle]LC-NH2; thioether N-14): under setting [2], the IC50 lay in the range of 1 to 9.9 nM.

Consider `CCCC[C@H]1C(=O)N(C)CC(=O)N[C@@H](CC(=O)O)C(=O)N[C@@H](C(C)C)C(=O)N(C)[C@@H](Cc2ccccc2)C(=O)N[C@@H](Cc2ccc(O)cc2)C(=O)N(C)CC(=O)N[C@@H]([C@@H](C)c2c[nH]c3ccccc23)C(=O)N[C@@H](Cc2ccc(O)cc2)C(=O)N[C@@H](CC(C)C)C(=O)N[C@H](C(=O)NCC(N)=O)CSCC(=O)N[C@@H](Cc2ccccc2)C(=O)N(C)[C@@H](Cc2ccccc2)C(=O)N1C` [Example 10533] ({CH2CO}-F[NMeF][NMeNle][Sar]DV[NMeF]Y[Sar][Trp(βS-Me)]YLCG-NH2; thioether N-13), for which, under setting [2], the IC50 lay in the range of 1 to 9.9 nM.

Turning to `CCCC[C@H]1C(=O)N(C)[C@@H](CCCC)C(=O)N[C@@H](CCCNC(=N)N)C(=O)N[C@H](C(=O)NCC(N)=O)CSCC(=O)N[C@@H](Cc2ccc(O)cc2)C(=O)N(C)[C@@H](C)C(=O)N[C@@H](CC(N)=O)C(=O)N2CCC[C@H]2C(=O)N[C@@H](CC(N)=O)C(=O)N[C@@H](CC(C)C)C(=O)N2C[C@H](O)C[C@H]2C(=O)N[C@@H]([C@@H](C)c2c[nH]c3ccccc23)C(=O)N[C@@H](CO)C(=O)N[C@@H](Cc2c[nH]c3ccccc23)C(=O)N1C` [Example 10534] ({CH2CO}-Y[NMeA]NPNL[Hyp][Trp(βS-Me)]SW[NMeNle][NMeNle]RCG-NH2; thioether N-14), the IC50 under setting [2] lay in the range of 1 to 9.9 nM.

For the compound `CCCC[C@H]1C(=O)N2CCC[C@@H]2C(=O)N[C@@H](CC(=O)O)C(=O)N[C@@H](C(C)C)C(=O)N(C)[C@@H](Cc2ccccc2)C(=O)N[C@@H](Cc2ccc(O)cc2)C(=O)N2CCC[C@@H]2C(=O)N[C@@H]([C@@H](C)c2c[nH]c3ccccc23)C(=O)N[C@@H](Cc2ccc(O)cc2)C(=O)N[C@@H](CC(C)C)C(=O)N[C@H](C(=O)NCC(N)=O)CSCC(=O)N[C@@H](Cc2ccccc2)C(=O)N(C)[C@@H](Cc2ccccc2)C(=O)N1C` [Example 10535] ({CH2CO}-F[NMeF][NMeNle][dP]DV[NMeF]Y[dP][Trp(βS-Me)]YLCG-NH2; thioether N-13), the IC50 under setting [2] lay in the range of 1 to 9.9 nM.

For `CCCC[C@H]1C(=O)N[C@@H](CC(N)=O)C(=O)N2CCC[C@H]2C(=O)N[C@@H](Cc2c[nH]cn2)C(=O)N[C@@H](CCC(N)=O)C(=O)N2C[C@H](O)C[C@H]2C(=O)N[C@@H]([C@@H](C)c2c[nH]c3ccccc23)C(=O)N[C@@H](CO)C(=O)N[C@@H](Cc2c[nH]c3ccccc23)C(=O)N(C)[C@@H](C)C(=O)N(C)[C@@H](C)C(=O)N[C@@H](CC(C)C)C(=O)N[C@H](C(=O)NCC(N)=O)CSCC(=O)N[C@@H](Cc2ccc(O)cc2)C(=O)N1C` [Example 10536] ({CH2CO}-Y[NMeNle]NPHQ[Hyp][Trp(βS-Me)]SW[NMeA][NMeA]LCG-NH2; thioether N-14), the IC50 under setting [2] was 1000 to 10000 nM.

Turning to `CCCC[C@H]1C(=O)N[C@@H](CC(=O)O)C(=O)N2CCC[C@H]2C(=O)N[C@@H](Cc2c[nH]cn2)C(=O)N[C@@H](CCC(N)=O)C(=O)N2C[C@H](O)C[C@H]2C(=O)N[C@@H]([C@@H](C)c2c[nH]c3ccccc23)C(=O)N[C@@H](CO)C(=O)N[C@@H](Cc2c[nH]c3ccccc23)C(=O)N(C)[C@@H](C)C(=O)N(C)[C@@H](C)C(=O)N[C@@H](C)C(=O)N[C@H](C(=O)NCC(N)=O)CSCC(=O)N[C@@H](Cc2ccc(O)cc2)C(=O)N1C` [Example 10539] ({CH2CO}-Y[NMeNle]DPHQ[Hyp][Trp(βS-Me)]SW[NMeA][NMeA]ACG-NH2; thioether N-14), the IC50 under setting [2] was 1000 to 10000 nM.

Turning to `CCCC[C@H]1C(=O)N[C@@H](CC(N)=O)C(=O)N2CCC[C@H]2C(=O)N[C@@H](Cc2c[nH]cn2)C(=O)N[C@@H](CCC(=O)O)C(=O)N2C[C@H](O)C[C@H]2C(=O)N[C@@H]([C@@H](C)c2c[nH]c3ccccc23)C(=O)N[C@@H](CCN)C(=O)N[C@@H](Cc2c[nH]c3ccccc23)C(=O)N(C)[C@@H](C)C(=O)N(C)[C@@H](C)C(=O)N[C@@H](CC(C)C)C(=O)N[C@H](C(=O)NCC(N)=O)CSCC(=O)N[C@@H](Cc2ccc(O)cc2)C(=O)N1C` [Example 10540] ({CH2CO}-Y[NMeNle]NPHE[Hyp][Trp(βS-Me)][Dab]W[NMeA][NMeA]LCG-NH2; thioether N-14), the IC50 under setting [2] lay within 1000 to 10000 nM.

Regarding `CC(C)C[C@@H]1NC(=O)[C@H](Cc2ccc(O)cc2)NC(=O)[C@H](Cc2c[nH]c3ccccc23)NC(=O)[C@H]2CCCCN2C(=O)[C@H](Cc2ccc(O)cc2)NC(=O)[C@H](Cc2ccccc2)N(C)C(=O)[C@H](C(C)C)NC(=O)[C@H](CC(=O)O)NC(=O)[C@H]2CCCN2C(=O)[C@H](C)N(C)C(=O)[C@H](Cc2ccc(F)cc2)N(C)C(=O)[C@H](Cc2cc(F)c(F)c(F)c2)NC(=O)CSC[C@@H](C(=O)NCC(N)=O)NC1=O` [Example 10542] ({CH2CO}-[Phe(3,4,5-F3)][NMePhe(4-F)][NMeA][dP]DV[NMeF]Y[dPip]WYLCG-NH2; thioether N-13), the IC50 under setting [2] fell in the range of 1 to 9.9 nM.

Take `CC(C)C[C@@H]1NC(=O)[C@H](Cc2ccc(O)cc2)NC(=O)[C@H](Cc2c[nH]c3ccccc23)NC(=O)[C@H]2CCCCN2C(=O)[C@H](Cc2ccc(O)cc2)NC(=O)[C@H](Cc2ccccc2)N(C)C(=O)[C@H](C(C)C)NC(=O)[C@H](CC(=O)O)NC(=O)[C@H]2CCCN2C(=O)[C@H](C)N(C)C(=O)[C@H](Cc2ccc(F)cc2)N(C)C(=O)[C@H](Cc2ccccc2)NC(=O)CSC[C@@H](C(=O)NCC(N)=O)NC1=O` [Example 10543] ({CH2CO}-F[NMePhe(4-F)][NMeA][dP]DV[NMeF]Y[dPip]WYLCG-NH2; thioether N-13): the IC50 under setting [1] worked out at 10 nM.

For `CCCC[C@H]1C(=O)N[C@@H](CC(=O)O)C(=O)N2CCC[C@H]2C(=O)N[C@@H](Cc2c[nH]cn2)C(=O)N[C@@H](CCC(N)=O)C(=O)N2C[C@H](O)C[C@H]2C(=O)N[C@@H]([C@@H](C)c2c[nH]c3ccccc23)C(=O)N[C@@H](CO)C(=O)N[C@@H](Cc2c[nH]c3ccccc23)C(=O)N(C)[C@@H](C)C(=O)N(C)[C@@H](C)C(=O)N[C@@H](CCC(=O)O)C(=O)N[C@H](C(=O)NCC(N)=O)CSCC(=O)N[C@@H](Cc2ccc(O)cc2)C(=O)N1C` [Example 10544] ({CH2CO}-Y[NMeNle]DPHQ[Hyp][Trp(βS-Me)]SW[NMeA][NMeA]ECG-NH2; thioether N-14), under setting [2], the IC50 was in the range of 1000 to 10000 nM.

With `CCCC[C@H]1C(=O)N2C[C@@H](O)C[C@@H]2C(=O)N[C@@H](CC(=O)O)C(=O)N[C@@H](C(C)C)C(=O)N(C)[C@@H](Cc2ccccc2)C(=O)N[C@@H](Cc2ccc(O)cc2)C(=O)N2CCC[C@@H]2C(=O)N[C@@H]([C@@H](C)c2c[nH]c3ccccc23)C(=O)N[C@@H](Cc2ccc(O)cc2)C(=O)N[C@@H](CC(C)C)C(=O)N[C@H](C(=O)NCC(N)=O)CSCC(=O)N[C@@H](Cc2cc(F)c(F)c(F)c2)C(=O)N(C)[C@@H](Cc2ccccc2)C(=O)N1C` [Example 10551] ({CH2CO}-[Phe(3,4,5-F3)][NMeF][NMeNle][dHyp]DV[NMeF]Y[dP][Trp(βS-Me)]YLCG-NH2; thioether N-13), the IC50 under setting [2] was 1 to 9.9 nM.

Take `CCCC[C@H]1C(=O)N(C)[C@@H](CCCC)C(=O)N[C@@H](CCC(=O)O)C(=O)N[C@H](C(=O)NCC(N)=O)CSCC(=O)N[C@@H](Cc2ccc(O)cc2)C(=O)N(C)[C@@H](C)C(=O)N[C@@H](CC(=O)O)C(=O)N2CCC[C@H]2C(=O)N[C@@H](Cc2c[nH]cn2)C(=O)N[C@@H](CCC(N)=O)C(=O)N2C[C@H](O)C[C@H]2C(=O)N[C@@H]([C@@H](C)c2c[nH]c3ccccc23)C(=O)N[C@@H](CO)C(=O)N[C@@H](Cc2c[nH]c3ccccc23)C(=O)N1C` [Example 10552] ({CH2CO}-Y[NMeA]DPHQ[Hyp][Trp(βS-Me)]SW[NMeNle][NMeNle]ECG-NH2; thioether N-14): the IC50 under setting [2] lay within 1 to 9.9 nM.
